Experimental findings from BindingDB's records for patent US10399948 (Vanderbilt University, 2019) are described below.

Metabotropic glutamate receptor 5, sequence (P31424 whole entry): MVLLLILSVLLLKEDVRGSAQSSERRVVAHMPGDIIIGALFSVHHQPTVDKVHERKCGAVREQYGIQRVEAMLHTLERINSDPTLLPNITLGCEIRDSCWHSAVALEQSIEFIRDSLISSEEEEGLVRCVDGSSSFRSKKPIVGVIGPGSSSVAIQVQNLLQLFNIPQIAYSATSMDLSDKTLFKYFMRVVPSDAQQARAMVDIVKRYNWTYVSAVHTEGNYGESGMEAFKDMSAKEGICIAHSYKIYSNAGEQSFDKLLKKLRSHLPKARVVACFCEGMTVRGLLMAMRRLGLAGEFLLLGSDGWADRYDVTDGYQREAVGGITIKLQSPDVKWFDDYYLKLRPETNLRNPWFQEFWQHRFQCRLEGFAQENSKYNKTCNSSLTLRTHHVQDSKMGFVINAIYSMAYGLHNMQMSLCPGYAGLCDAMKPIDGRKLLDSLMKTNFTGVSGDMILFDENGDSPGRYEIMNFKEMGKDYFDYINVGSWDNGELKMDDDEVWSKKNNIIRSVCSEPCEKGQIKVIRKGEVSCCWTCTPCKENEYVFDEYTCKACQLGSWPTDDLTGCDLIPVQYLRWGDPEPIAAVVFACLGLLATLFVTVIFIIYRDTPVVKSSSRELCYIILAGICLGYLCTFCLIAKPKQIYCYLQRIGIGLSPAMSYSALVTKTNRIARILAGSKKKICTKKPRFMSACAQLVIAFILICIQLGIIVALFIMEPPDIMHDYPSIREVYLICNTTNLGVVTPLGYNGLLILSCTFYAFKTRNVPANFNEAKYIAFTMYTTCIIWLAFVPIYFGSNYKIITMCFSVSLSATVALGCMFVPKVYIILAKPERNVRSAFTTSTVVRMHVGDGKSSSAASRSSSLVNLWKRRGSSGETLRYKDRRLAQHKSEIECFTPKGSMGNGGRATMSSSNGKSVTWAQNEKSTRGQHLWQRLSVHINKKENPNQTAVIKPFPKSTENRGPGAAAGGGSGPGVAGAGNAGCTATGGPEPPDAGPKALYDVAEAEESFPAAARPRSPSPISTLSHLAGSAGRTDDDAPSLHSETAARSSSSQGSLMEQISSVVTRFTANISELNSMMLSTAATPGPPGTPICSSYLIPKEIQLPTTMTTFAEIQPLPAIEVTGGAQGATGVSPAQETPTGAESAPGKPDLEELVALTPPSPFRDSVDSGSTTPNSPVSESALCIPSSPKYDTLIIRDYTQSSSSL

The test concerns the target Metabotropic glutamate receptor 5 (Rattus norvegicus, UniProt P31424). Put plainly: mGlu5 Ca2+ Flux Assay. On the procedure: HEK 293A cells stably expressing rat mGlu5 were plated in black-walled, clear-bottomed, poly-D-lysine coated 384-well plates in 20 μL of assay medium (DMEM containing 10% dialyzed FBS, 20 mM HEPES, 100 units/mL penicillin/streptomycin plus 250 ng/mL Fungizone, and 1 mM sodium pyruvate) at a density of 20K cells/well. The cells were grown overnight at 37° C. in the presence of 5% CO2. The next day, medium was removed and the cells incubated with 20 μL of […] Fluo-4, AM prepared as a 2.3 mM stock in DMSO and mixed in a 1:1 ratio with 10% (w/v) pluronic acid F-127 and diluted in assay buffer (Hank's balanced salt solution, 20 mM HEPES, and 2.5 mM probenecid) for 45 minutes at 37° C. Dye was removed, 20 μL of assay buffer was added, and the plate was incubated for 5 minutes at room temperature.Ca2+ flux was measured using the Functional Drug Screening System (FDSS7000, Hamamatsu, Japan). After establishment of a fluorescence baseline for about 3 seconds, the compounds of the present invention were added to the cells, and the response in cells was measured. 2.3 minutes later an EC20 concentration of the mGlu5 receptor agonist glutamate was added to the cells, and the response of the cells was measured for 1.9 minutes; an EC80 concentration of agonist was added and readings taken for an additional 1.7 minutes. All test compounds were dissolved and diluted to a concentration of 10 mM in 100% DMSO. Compounds were then serially diluted 1:3 in DMSO into 10 point concentration response curves, transferred to daughter plates, and further diluted into assay buffer to a 2× stock. Calcium fluorescence measures were recorded as fold over basal fluorescence; raw data was then normalized to the maximal response to glutamate. Potentiation of the agonist response of the mGlu5 receptor in the present invention was observed as an increase in response to submaximal concentrations of glutamate in the presence of compound compared to the response to glutamate in the absence of compound. Antagonism of the agonist response of the mGlu5 receptor in the present invention was observed as a decrease in response to nearly maximal concentrations of glutamate in the presence of compound compared to the response to glutamate in the absence of compound.The raw data file containing all time points was used as the data source in the analysis template. This was saved by the FDSS as a tab-delimited text file. Data were normalized using a static ratio function (F/F0) for each measurement of the total 360 values per well divided by each well's initial value. Data were then reduced to peak amplitudes (Max−Initial Min) using a time range that starts approximately 3 seconds prior to the glutamate EC20/EC80 addition and continues for approximately 90-120 seconds. This is sufficient time to capture the peak amplitude of the cellular calcium response. Individual amplitudes were expressed as % EMax by multiplying each amplitude by 100 and then dividing the product by the mean of the amplitudes derived from the glutamate ECMax-treated wells. EC50 values for test compounds were generated by fitting the normalized values versus the log of the test compound concentration (in mol/L) using a 4 parameter logistic equation where none of the parameters were fixed. Each of the three values collected at each concentration of test compound were weighted evenly
Background: Calcium assays in cells follow changes in intracellular calcium, usually with a dye or a luminescent sensor.
In the case of `O=c1cc(OCCOc2cc(Cl)ccn2)ccn1-c1ccc(F)cc1` [US10399948, Compound 49], the concentration for half-maximal inhibition (IC50) (as a rule, the concentration needed to halve the response being measured) came out at 8.8 µM.
Then `O=c1nc(OCCOc2ccccc2)ccn1-c1cccc(F)c1` [US10399948, Compound 14], with 3.54 µM.
The result for `O=c1nc(OCCOc2ccccc2)ccn1-c1ccc(F)c(F)c1` [US10399948, Compound 15] reads 0.427 µM.
Then `O=c1cc(OCCOc2ncccc2Cl)ccn1-c1ccc(F)cc1` [US10399948, Compound 54], with 7.82 µM.
In the case of `N#Cc1cccc(-n2ccc(OCCOc3ccccc3)cc2=O)c1` [US10399948, Compound 22], the 50% inhibitory concentration (IC50) is 6.02 µM.
With `N#Cc1cc(F)cc(-n2ccc(OCCOc3ccccc3)cc2=O)c1` [US10399948, Compound 23], the IC50 came to 1.31 µM.
Take `O=c1nc(OCCOc2ccccc2)ccn1-c1ccc(F)cc1` [US10399948, Compound 17]: the half-maximal inhibitory concentration (IC50) is 1.19 µM.
